Data reported in ChEMBL document CHEMBL1201862, “PubChem BioAssay data set” (2004).
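Each compound was tested at five concentrations against cells in 96-well plates for 48 hours. GI50 = concentration required for 50% inhibition of growth.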 The source made the active and inactive calls. Cut-off read from the data, not from the text of the source: active = GI50 up to about 1.1 µM and inactive = higher.

How the values were obtained:
Test in all cases: DTP human tumour cell line panel, 48 h
UO-31 = test system: UO-31
DU-145 = test system: DU-145
Malme-3M = test system: Malme-3M
OVCAR-8 = test system: OVCAR-8
M14 = test system: M14
IGROV-1 = test system: IGROV-1
ACHN = test system: ACHN
LOX IMVI = test system: LOX IMVI
BT-549 = test system: BT-549
SR = test system: SR
MDA-N = test system: MDA-N
HL-60 = test system: HL-60
MCF7 = test system: MCF7
HCC 2998 = test system: HCC 2998
OVCAR-3 = test system: OVCAR-3
UACC-62 = test system: UACC-62
NCI-H226 = test system: NCI-H226
SK-MEL-2 = test system: SK-MEL-2
CCRF-CEM = test system: CCRF-CEM
786-0 = test system: 786-0
Hs-578T = test system: Hs-578T
SNB-19 = test system: SNB-19
MOLT-4 = test system: MOLT-4
HOP-62 = test system: HOP-62
SF-268 = test system: SF-268
HCT-15 = test system: HCT-15
EKVX = test system: EKVX
SW-620 = test system: SW-620
K562 = test system: K562
HCT-116 = test system: HCT-116
A549 = test system: A549
NCI/ADR-RES = test system: NCI/ADR-RES
MDA-MB-435 = test system: MDA-MB-435
U-251 = test system: U-251
NCI-H23 = test system: NCI-H23
HOP-92 = test system: HOP-92
NCI-H522 = test system: NCI-H522
RXF 393 = test system: RXF 393
HT-29 = test system: HT-29
CAKI-1 = test system: CAKI-1
SNB-75 = test system: SNB-75
SK-OV-3 = test system: SK-OV-3
TK-10 = test system: TK-10
PC-3 = test system: PC-3
SK-MEL-5 = test system: SK-MEL-5
COLO 205 = test system: COLO 205
KM12 = test system: KM12
T47D = test system: T47D
UACC-257 = test system: UACC-257
A498 = test system: A498
OVCAR-4 = test system: OVCAR-4
SF-295 = test system: SF-295
RPMI-8226 = test system: RPMI-8226
SK-MEL-28 = test system: SK-MEL-28
SN12C = test system: SN12C
SF-539 = test system: SF-539
OVCAR-5 = test system: OVCAR-5
NCI-H460 = test system: NCI-H460
MDA-MB-231 = test system: MDA-MB-231

CCOC(=O)/C=C(/C(=O)OCC)n1cc(C)c(=O)[nH]c1=O
GI50 (UO-31): 11.2 µM (inactive) | GI50 (DU-145): 16.1 µM (inactive) | GI50 (Malme-3M): 2.29 µM (inactive) | GI50 (OVCAR-8): 4.62 µM (inactive) | GI50 (M14): 1.95 µM (inactive) | GI50 (IGROV-1): 5.36 µM (inactive) | GI50 (ACHN): 2.72 µM (inactive) | GI50 (LOX IMVI): 2.19 µM (inactive) | GI50 (BT-549): 10.3 µM (inactive) | GI50 (SR): 1.92 µM (inactive) | GI50 (MDA-N): 5.83 µM (inactive) | GI50 (HL-60): 1.67 µM (inactive) | GI50 (MCF7): 3.89 µM (inactive) | GI50 (HCC 2998): 5.71 µM (inactive) | GI50 (OVCAR-3): 2.68 µM (inactive) | GI50 (UACC-62): 5.14 µM (inactive) | GI50 (NCI-H226): 5.46 µM (inactive) | GI50 (SK-MEL-2): 7 µM (inactive) | GI50 (CCRF-CEM): 1.37 µM (inactive) | GI50 (786-0): 2.49 µM (inactive) | GI50 (Hs-578T): 17.7 µM (inactive) | GI50 (SNB-19): 17.3 µM (inactive) | GI50 (MOLT-4): 2.44 µM (inactive) | GI50 (HOP-62): 18.9 µM (inactive) | GI50 (SF-268): 8.65 µM (inactive) | GI50 (HCT-15): 2.04 µM | GI50 (EKVX): 3.33 µM (inactive) | GI50 (SW-620): 2.01 µM (inactive) | GI50 (K562): 1.9 µM (inactive) | GI50 (HCT-116): 2.43 µM (inactive) | GI50 (A549): 16.4 µM (inactive) | GI50 (NCI/ADR-RES): 10.9 µM (inactive) | GI50 (MDA-MB-435): 3.07 µM (inactive) | GI50 (U-251): 6.62 µM (inactive) | GI50 (NCI-H23): 5.56 µM (inactive) | GI50 (HOP-92): 1.71 µM (inactive) | GI50 (NCI-H522): 0.792 µM (active) | GI50 (RXF 393): 1.95 µM (inactive) | GI50 (HT-29): 4.92 µM (inactive) | GI50 (CAKI-1): 1.15 µM (inactive) | GI50 (SNB-75): 10.3 µM (inactive) | GI50 (SK-OV-3): 18.3 µM (inactive) | GI50 (TK-10): 2.52 µM (inactive) | GI50 (PC-3): 8.15 µM (inactive) | GI50 (SK-MEL-5): 8.81 µM (inactive) | GI50 (COLO 205): 1.81 µM (inactive) | GI50 (KM12): 14.2 µM (inactive) | GI50 (T47D): 3.69 µM (inactive) | GI50 (UACC-257): 12.9 µM (inactive) | GI50 (A498): 12.9 µM (inactive) | GI50 (OVCAR-4): 4.93 µM (inactive) | GI50 (SF-295): 17.3 µM (inactive) | GI50 (RPMI-8226): 2.47 µM (inactive) | GI50 (SK-MEL-28): 4.78 µM (inactive) | GI50 (SN12C): 5.06 µM (inactive) | GI50 (SF-539): 13.2 µM (inactive) | GI50 (OVCAR-5): 5.87 µM (inactive) | GI50 (NCI-H460): 14.6 µM (inactive) | GI50 (MDA-MB-231): 4.51 µM (inactive)

CN(CCCCN1CCCC1)CCCCN(C)C(=O)Cc1ccc(Cl)c(Cl)c1
GI50 (UO-31): 1.71 µM (inactive) | GI50 (DU-145): 25.2 µM (inactive) | GI50 (Malme-3M): 17.9 µM (inactive) | GI50 (OVCAR-8): 21.3 µM (inactive) | GI50 (M14): 17.2 µM (inactive) | GI50 (IGROV-1): 18.2 µM (inactive) | GI50 (ACHN): 20.7 µM (inactive) | GI50 (LOX IMVI): 10.6 µM (inactive) | GI50 (BT-549): 18.5 µM (inactive) | GI50 (SR): 2.59 µM (inactive) | GI50 (MDA-N): 3.56 µM (inactive) | GI50 (HL-60): 17.5 µM (inactive) | GI50 (MCF7): 14 µM (inactive) | GI50 (HCC 2998): 5.09 µM (inactive) | GI50 (OVCAR-3): 18.2 µM (inactive) | GI50 (UACC-62): 3.66 µM (inactive) | GI50 (NCI-H226): 23.7 µM (inactive) | GI50 (SK-MEL-2): 6.07 µM (inactive) | GI50 (CCRF-CEM): 6.22 µM (inactive) | GI50 (786-0): 12.3 µM (inactive) | GI50 (Hs-578T): 19.5 µM (inactive) | GI50 (SNB-19): 19.3 µM (inactive) | GI50 (MOLT-4): 4.54 µM (inactive) | GI50 (HOP-62): 16.3 µM (inactive) | GI50 (SF-268): 17.2 µM (inactive) | GI50 (HCT-15): 21.1 µM | GI50 (EKVX): 20.5 µM (inactive) | GI50 (SW-620): 18.8 µM (inactive) | GI50 (K562): 2.91 µM (inactive) | GI50 (HCT-116): 14.3 µM (inactive) | GI50 (A549): 14.4 µM (inactive) | GI50 (NCI/ADR-RES): > 100 µM (inactive) | GI50 (MDA-MB-435): 2.26 µM (inactive) | GI50 (U-251): 13.6 µM (inactive) | GI50 (NCI-H23): 17.9 µM (inactive) | GI50 (HOP-92): 2.88 µM (inactive) | GI50 (NCI-H522): 11.5 µM (inactive) | GI50 (RXF 393): 11.7 µM (inactive) | GI50 (HT-29): 3.85 µM (inactive) | GI50 (CAKI-1): 19.5 µM (inactive) | GI50 (SNB-75): 15 µM (inactive) | GI50 (SK-OV-3): 23.6 µM (inactive) | GI50 (TK-10): 18.2 µM (inactive) | GI50 (PC-3): 16.8 µM (inactive) | GI50 (SK-MEL-5): 6.43 µM (inactive) | GI50 (COLO 205): 7.8 µM (inactive) | GI50 (KM12): 13.1 µM (inactive) | GI50 (T47D): 20.2 µM (inactive) | GI50 (UACC-257): 2.52 µM (inactive) | GI50 (A498): 17.1 µM (inactive) | GI50 (OVCAR-4): 17.6 µM (inactive) | GI50 (SF-295): 19.5 µM (inactive) | GI50 (RPMI-8226): 5.33 µM (inactive) | GI50 (SK-MEL-28): 2 µM (inactive) | GI50 (SN12C): 19.1 µM (inactive) | GI50 (SF-539): 9.29 µM (inactive) | GI50 (OVCAR-5): 21.9 µM (inactive) | GI50 (NCI-H460): 14.8 µM (inactive) | GI50 (MDA-MB-231): 10.1 µM (inactive)
